Our source for the GI50 and TGI values is PubChem BioAssay (NCI).

Some test systems named below: EKVX NSCLC; MOLT-4 leukemia; BT-549 breast; T-47D breast; KM12 colon; 786-0 renal; UACC-62 melanoma; PC-3 prostate; NCI-H460 lung; SNB-19 CNS.
Holding throughout (experiment): NCI tumour cell line growth inhibition, 48 h

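How tested: cells in 96-well plates exposed to compound for 48 hours at five concentrations. GI50 marks 50% less growth. At the TGI there is no net growth.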 A value given as a limit tells only on which side of the number the result lay.

On to `O=C1c2ccn(CCCCN3CCCCC3)c2C(=O)c2c1c(O)c1ccccc1c2O`, for which the GI50 was 15.2 µM in the assay on EKVX NSCLC; 3.49 µM in the assay on MOLT-4 leukemia; 17.7 µM in the assay with BT-549 breast; 23.6 µM with T-47D breast; 8.55 µM in the assay with KM12 colon; 5.28 µM in the assay on 786-0 renal. The GI50 in the assay with PC-3 prostate is 4.76 µM; in the assay on NCI-H460 lung, 3.88 µM; with SNB-19 CNS it was 19.1 µM. Further, the TGI is 36.1 µM with EKVX NSCLC; greater than 100 µM with MOLT-4 leukemia; 38.3 µM in the assay with BT-549 breast; greater than 59.6 µM in the assay with T-47D breast; 27.5 µM in the assay on KM12 colon; 1.32 µM in the assay on UACC-62 melanoma. The TGI with PC-3 prostate was 18.1 µM; in the assay on NCI-H460 lung it was 16.3 µM; in the assay with SNB-19 CNS, greater than 90.5 µM.

Turning to `Cc1ccc(C2C3=C(N=c4s/c(=C/c5ccc(Br)cc5)c(=O)n42)c2ccc4ccccc4c2OCC3)cc1` (stereo not drawn), the GI50 in the assay on EKVX NSCLC, with MOLT-4 leukemia, in the assay on BT-549 breast, with T-47D breast, in the assay on KM12 colon and in the assay with 786-0 renal was greater than 100 µM each time. In addition, the GI50 was 67.9 µM in the assay with UACC-62 melanoma, greater than 100 µM with PC-3 prostate, greater than 100 µM in the assay with NCI-H460 lung and greater than 100 µM in the assay on SNB-19 CNS. Moreover, the TGI with EKVX NSCLC, in the assay on MOLT-4 leukemia, with BT-549 breast, in the assay on T-47D breast, in the assay with KM12 colon and in the assay with 786-0 renal was greater than 100 µM each time. Moreover, the TGI with UACC-62 melanoma, in the assay on PC-3 prostate, in the assay on NCI-H460 lung and with SNB-19 CNS was greater than 100 µM throughout.

With `CC1SC(c2c(Cl)cccc2Cl)N(NC(=O)C(O)c2ccccc2)C1=O` (stereo not drawn), the GI50 was greater than 100 µM in the assay with EKVX NSCLC; greater than 100 µM with MOLT-4 leukemia; greater than 100 µM with BT-549 breast; 48.2 µM with T-47D breast; 44.1 µM in the assay on KM12 colon; greater than 100 µM in the assay on 786-0 renal. Moreover, the GI50 is 50.2 µM in the assay on UACC-62 melanoma, 39.7 µM in the assay with PC-3 prostate, greater than 100 µM in the assay on NCI-H460 lung and greater than 100 µM in the assay on SNB-19 CNS. The TGI in the assay with EKVX NSCLC, with MOLT-4 leukemia, in the assay with BT-549 breast, in the assay on T-47D breast, in the assay on KM12 colon and in the assay on 786-0 renal was greater than 100 µM in each case. Further, the TGI in the assay with UACC-62 melanoma, with PC-3 prostate, with NCI-H460 lung and with SNB-19 CNS was greater than 100 µM in each case.

Turning to `CN1CCN(c2ccc(NC3=C(Cl)C(=O)c4ncccc4C3=O)cc2C#N)CC1`, the GI50 is 2.78 µM in the assay with EKVX NSCLC; 1.04 µM in the assay with MOLT-4 leukemia; 2.25 µM in the assay with BT-549 breast; 1.76 µM in the assay with T-47D breast; 10.8 µM in the assay on KM12 colon; 1.72 µM in the assay with 786-0 renal. Besides, the GI50 in the assay with UACC-62 melanoma was 1.78 µM; with PC-3 prostate it was 2.29 µM; in the assay on NCI-H460 lung, 13 µM; with SNB-19 CNS, 11 µM. Moreover, the TGI is 8.72 µM with EKVX NSCLC; 5.31 µM in the assay on MOLT-4 leukemia; 5.95 µM in the assay with BT-549 breast; 5.26 µM in the assay on T-47D breast; 25.4 µM in the assay on KM12 colon; 3.23 µM with 786-0 renal. Besides, the TGI in the assay with UACC-62 melanoma amounted to 3.61 µM; in the assay on PC-3 prostate, 9.34 µM; in the assay with NCI-H460 lung it was 30.9 µM; in the assay on SNB-19 CNS, 23 µM.

Turning to `COc1ccc(/C=C(/C)[N+](=O)[O-])cc1`, the TGI was 4.91 µM in the assay on EKVX NSCLC; 5.34 µM in the assay with MOLT-4 leukemia; 6.91 µM with BT-549 breast; greater than 100 µM in the assay with T-47D breast; 3.32 µM with KM12 colon; 2.51 µM in the assay with 786-0 renal. Further, the TGI in the assay on UACC-62 melanoma turned out to be 3.29 µM; in the assay with PC-3 prostate it was 5.04 µM; with NCI-H460 lung, 5.22 µM; in the assay with SNB-19 CNS, 17.9 µM.

For the molecule `O=C(Nc1ccccc1O)c1ccc(CNC(=O)c2sccc2Nc2ccnc(C(F)(F)F)c2)cc1`, the GI50 in the assay with EKVX NSCLC is 8.77 µM; in the assay with MOLT-4 leukemia, 1.78 µM; in the assay with BT-549 breast it was 5.54 µM; in the assay with T-47D breast, 3.45 µM; in the assay with KM12 colon, 12.2 µM; in the assay with 786-0 renal, 9.92 µM. Moreover, the GI50 with UACC-62 melanoma is 4.13 µM; with PC-3 prostate, 4.56 µM; in the assay on NCI-H460 lung, 5.19 µM; in the assay on SNB-19 CNS, 13.2 µM. In addition, the TGI with EKVX NSCLC was 57.7 µM; in the assay with MOLT-4 leukemia, 32.7 µM; in the assay on BT-549 breast, 35 µM; in the assay with T-47D breast, 29.9 µM; in the assay with KM12 colon, 32 µM; in the assay with 786-0 renal it was 25 µM. Moreover, the TGI in the assay on UACC-62 melanoma was found to be 20 µM; in the assay with PC-3 prostate it was 36.8 µM; in the assay with NCI-H460 lung, 21.4 µM; with SNB-19 CNS it was 31.1 µM.

For the molecule `CC(=O)OC1CCC2(C)C(=CCC3C4CCC5(OC6CC(C)CN(C(C)=O)C6C5C)C(C)=C4C(=O)C32)C1` (stereo not drawn), the TGI is 27.5 µM in the assay with EKVX NSCLC; 23.6 µM in the assay with MOLT-4 leukemia; 28.6 µM in the assay on BT-549 breast; 49 µM in the assay on T-47D breast; 37.6 µM in the assay on KM12 colon; 72.6 µM in the assay with 786-0 renal. In addition, the TGI in the assay on UACC-62 melanoma was 18.5 µM; in the assay on PC-3 prostate, 28.6 µM; in the assay on NCI-H460 lung it was 35.1 µM; in the assay with SNB-19 CNS, 32.7 µM.

As for `CCCCCCCCCCCCCC(=O)C(C)N` (stereo not drawn), the GI50 in the assay on EKVX NSCLC is 2.13 µM; with MOLT-4 leukemia, 7.06 µM; in the assay on BT-549 breast, 15.4 µM; in the assay on T-47D breast, 2.17 µM; with KM12 colon, 3.71 µM; with 786-0 renal it was 12.4 µM. Besides, the GI50 in the assay with UACC-62 melanoma was 3.25 µM; with PC-3 prostate, 2.64 µM; with NCI-H460 lung it was 4.16 µM; with SNB-19 CNS, 13.5 µM. For the same molecule, the TGI in the assay with EKVX NSCLC is 4.75 µM; in the assay with MOLT-4 leukemia, 23.5 µM; with BT-549 breast, 31.1 µM; in the assay with T-47D breast, 5.5 µM; in the assay on KM12 colon, 15.5 µM; in the assay on 786-0 renal it was 26.2 µM. Also, the TGI is 10.4 µM with UACC-62 melanoma, 6.05 µM in the assay with PC-3 prostate, 15.3 µM in the assay with NCI-H460 lung and 30.7 µM in the assay on SNB-19 CNS.
